The values that follow come from patent US10385065B2, “Antibacterial compounds” (priority 2014, dated 2019).

≈ marks a conversion by molar mass, not a printed value. Read-outs that look alike come from different tables or passages of the source. Some results are limits rather than exact numbers.

What all share (assay type): cell-based
Assay [1] has as its system Enterococcus faecium ATCC 19434. The assay can be described thus: MIC, E. faecium ATCC 19434. To be noted: ATCC19434, Table 2.
Assay [2] deals with Staphylococcus aureus ATCC 29213. The assay is described as follows: MIC, broth microdilution, S. aureus ATCC 29213. A general note: Broth dilution looks for growth in wells or tubes with falling amounts of substance.
Assay [3] relates to Escherichia coli ATCC 25922. The assay can be described thus: MIC, broth microdilution, E. coli ATCC 25922. The note with it: ATCC25922, Table 1, wild type strain.
For assay [4], the system named is Haemophilus influenzae ATCC 49247. The assay can be described thus: MIC, H. influenzae ATCC 49247. The note with it: ATCC49247, Table 4.
The mark [5] stands for this setting: ATCC29213, Table 1, wild type strain, read-out: MIC S. aureus ATCC 29213.
Setting [6] is: ATCC 29213 / MSSA, Table 2, read-out: MIC S. aureus (MSSA) ATCC 29213 CLSI control strain.

Turning to `O=c1c2ncoc2c2cc(F)c(-c3ccncc3Cl)cc2n1C1CC1` [Compound 59, 7-(3-chloro-4-pyridyl)-5-cyclopropyl-8-fluoro-oxazolo[4,5-c]quinolin-4-one], the MIC in assay [1] is greater than 100 mg/L; in assay [2] (setting [5]), 1 to 10 mg/L (≈ 2.81 to 28.1 µM); in assay [2] (setting [6]), 1 to 10 mg/L (≈ 2.81 to 28.1 µM); in assay [3], 10 to 100 mg/L (≈ 28.1 to 281 µM); in assay [4], 1 to 10 mg/L (≈ 2.81 to 28.1 µM).
In the case of `Cc1nc2c(=O)n3c4c(c(N5CCN(C)CC5)c(F)cc4c2o1)OC[C@@H]3C` [Compound 91], the MIC in assay [1] is greater than 100 mg/L; in assay [2] (setting [5]), 10 to 100 mg/L (≈ 26.9 to 269 µM); in assay [2] (setting [6]) it was 10 to 100 mg/L (≈ 26.9 to 269 µM); in assay [3] it was 10 to 100 mg/L (≈ 26.9 to 269 µM); in assay [4], 1 to 10 mg/L (≈ 2.69 to 26.9 µM).
For `Cc1nc2c(=O)n(C3CC3)c3nc(-c4cc(F)c(N)cc4F)c(F)cc3c2o1` [Compound 86, 7-(4-amino-2,5-difluorophenyl)-5-cyclopropyl-8-fluoro-2-methyl-oxazolo[4,5-c]1,8-naphthyridin-4-one], the MIC was greater than 100 mg/L in assay [1]; greater than 100 mg/L in assay [2] (setting [5]); 10 to 100 mg/L (≈ 25.9 to 259 µM) in assay [2] (setting [6]); greater than 100 mg/L in assay [3]; 10 to 100 mg/L (≈ 25.9 to 259 µM) in assay [4].
As for `Cc1nc2c(=O)n(C3CC3)c3c(C)c(-c4ccc(S(N)(=O)=O)cc4)ccc3c2o1` [Compound 17], the MIC in assay [1] is greater than 100 mg/L; in assay [2] (setting [5]) it was 1 to 10 mg/L (≈ 2.44 to 24.4 µM); in assay [2] (setting [6]), 1 to 10 mg/L (≈ 2.44 to 24.4 µM); in assay [3], 1 to 10 mg/L (≈ 2.44 to 24.4 µM); in assay [4] it was less than 1 mg/L.
As to `Nc1ncc(-c2cc3c(cc2F)c2ocnc2c(=O)n3C2CC2)cn1` [Compound 62, 7-(2-aminopyrimidin-5-yl)-5-cyclopropyl-8-fluoro-oxazolo[4,5-c]quinolin-4-one], the MIC in assay [1] was greater than 100 mg/L; in assay [2] (setting [5]), 1 to 10 mg/L (≈ 2.96 to 29.6 µM); in assay [2] (setting [6]) it was 1 to 10 mg/L (≈ 2.96 to 29.6 µM); in assay [3], 10 to 100 mg/L (≈ 29.6 to 296 µM); in assay [4] it was 1 to 10 mg/L (≈ 2.96 to 29.6 µM).
Regarding `Cc1c(-c2ccc(O)cn2)ccc2c3ocnc3c(=O)n(C3CC3)c12` [Compound 45, 5-cyclopropyl-7-(5-hydroxypyridin-2-yl)-6-methyl-oxazolo[4,5-c]quinolin-4-one], the MIC in assay [1] was greater than 100 mg/L; in assay [2] (setting [5]) it was 10 to 100 mg/L (≈ 30 to 300 µM); in assay [2] (setting [6]), 10 to 100 mg/L (≈ 30 to 300 µM); in assay [3], greater than 100 mg/L; in assay [4], 10 to 100 mg/L (≈ 30 to 300 µM).
Consider `CC(=O)c1cc(F)c(-c2cc3c(cc2F)c2oc(C)nc2c(=O)n3C2CC2)cc1F` [Compound 77, 7-(4-acetyl-2,5-difluoro-phenyl)-5-cyclopropyl-8-fluoro-2-methyl-oxazolo[4,5-c]quinolin-4-one], for which the MIC in assay [1] is greater than 100 mg/L; in assay [2] (setting [5]) it was 10 to 100 mg/L (≈ 24.3 to 243 µM); in assay [2] (setting [6]), 10 to 100 mg/L (≈ 24.3 to 243 µM); in assay [3], greater than 100 mg/L; in assay [4], greater than 100 mg/L.
Consider `Cc1nc2c(=O)n(C3CC3)c3c(C)c(-c4cnn(C5CNC5)c4)ccc3c2o1` [Compound 12, 7-[1-(azetidin-3-yl)pyrazol-4-yl]-5-cyclopropyl-2,6-dimethyl-oxazolo[4,5-c]quinolin-4-one], for which the MIC in assay [1] was greater than 100 mg/L; in assay [2] (setting [5]), 1 to 10 mg/L (≈ 2.66 to 26.6 µM); in assay [2] (setting [6]) it was greater than 100 mg/L; in assay [3] it was 10 to 100 mg/L (≈ 26.6 to 266 µM); in assay [4], 1 to 10 mg/L (≈ 2.66 to 26.6 µM).
`C[C@H]1COc2c(-c3cnc(N)nc3)ccc3c4ocnc4c(=O)n1c23` [Compound 94, (2S)-6-(2-aminopyrimidin-5-yl)-2-methyl-4,11-dioxa-1,13-diazatetracyclo[7.6.1.0^5,^16.0^10,^14]hexadeca-5(16),6,8,10(14),12-pentaen-15-one]: the MIC in assay [1] is 10 to 100 mg/L (≈ 29.8 to 298 µM); in assay [2] (setting [5]), 1 to 10 mg/L (≈ 2.98 to 29.8 µM); in assay [2] (setting [6]) it was 1 to 10 mg/L (≈ 2.98 to 29.8 µM); in assay [3], 10 to 100 mg/L (≈ 29.8 to 298 µM); in assay [4], 1 to 10 mg/L (≈ 2.98 to 29.8 µM).
For the compound `Cc1c(-c2cnoc2)ccc2c3ocnc3c(=O)n(C3CC3)c12` [Compound 43, 5-cyclopropyl-6-methyl-7-(1,2-oxazol-4-yl)-oxazolo[4,5-c]quinolin-4-one], the MIC in assay [1] was greater than 100 mg/L; in assay [2] (setting [5]), 1 to 10 mg/L (≈ 3.25 to 32.5 µM); in assay [2] (setting [6]), 1 to 10 mg/L (≈ 3.25 to 32.5 µM); in assay [3], 10 to 100 mg/L (≈ 32.5 to 325 µM); in assay [4] it was 10 to 100 mg/L (≈ 32.5 to 325 µM).
With `Cc1nc2c(=O)n(C3CC3)c3cc(-c4ccc5[nH]ncc5c4)c(F)cc3c2o1` [Compound 73, 5-cyclopropyl-8-fluoro-7-(1H-indazol-5-yl)-2-methyl-oxazolo[4,5-c]quinolin-4-one], the MIC in assay [1] was greater than 100 mg/L; in assay [2] (setting [5]) it was less than 1 mg/L; in assay [2] (setting [6]) it was less than 1 mg/L; in assay [3], greater than 100 mg/L; in assay [4] it was 1 to 10 mg/L (≈ 2.67 to 26.7 µM).
As to `Cc1nc2c(=O)n(C3CC3)c3c(C)c(-c4cnc(C(C)(C)O)nc4)ccc3c2o1` [Compound 37, 5-cyclopropyl-7-[2-(2-hydroxypropan-2-yl)pyrimidin-5-yl]-2,6-dimethyl-oxazolo[4,5-c]quinolin-4-one], the MIC was greater than 100 mg/L in assay [1]; 10 to 100 mg/L (≈ 25.6 to 256 µM) in assay [2] (setting [5]); 10 to 100 mg/L (≈ 25.6 to 256 µM) in assay [2] (setting [6]); greater than 100 mg/L in assay [3]; 10 to 100 mg/L (≈ 25.6 to 256 µM) in assay [4].
On to `O=c1c2ncoc2c2cc(F)c(-c3ccc(C(F)(F)F)nc3)cc2n1C1CC1` [Compound 60, 5-cyclopropyl-8-fluoro-7-[6-(trifluoromethyl)-3-pyridyl]oxazolo[4,5-c]quinolin-4-one], for which the MIC is greater than 100 mg/L in assay [1]; 10 to 100 mg/L (≈ 25.7 to 257 µM) in assay [2] (setting [5]); 10 to 100 mg/L (≈ 25.7 to 257 µM) in assay [2] (setting [6]); greater than 100 mg/L in assay [3]; 1 to 10 mg/L (≈ 2.57 to 25.7 µM) in assay [4].
On to `Cc1nc2c(=O)n(C3CC3)c3cc(-c4ccc(C=O)cc4)c(F)cc3c2o1` [Compound 72, 4-(5-cyclopropyl-8-fluoro-2-methyl-4-oxo-oxazolo[4,5-c]quinolin-7-yl)benzaldehyde], for which the MIC is greater than 100 mg/L in assay [1]; 10 to 100 mg/L (≈ 27.6 to 276 µM) in assay [2] (setting [5]); 10 to 100 mg/L (≈ 27.6 to 276 µM) in assay [2] (setting [6]); greater than 100 mg/L in assay [3]; 1 to 10 mg/L (≈ 2.76 to 27.6 µM) in assay [4].
In the case of `Nc1ccc(-c2cc3c(cc2F)c2ocnc2c(=O)n3C2CC2)cn1` [Compound 70, 7-(6-amino-3-pyridyl)-5-cyclopropyl-8-fluoro-oxazolo[4,5-c]quinolin-4-one], the MIC in assay [1] is greater than 100 mg/L; in assay [2] (setting [5]), 10 to 100 mg/L (≈ 29.7 to 297 µM); in assay [2] (setting [6]), 10 to 100 mg/L (≈ 29.7 to 297 µM); in assay [3] it was greater than 100 mg/L; in assay [4], greater than 100 mg/L.
As for `Cc1nc2c(=O)n(C3CC3)c3cc(-c4ccncc4)c(F)cc3c2o1` [Compound 75, 5-cyclopropyl-8-fluoro-2-methyl-7-(4-pyridyl)oxazolo[4,5-c]quinolin-4-one], the MIC in assay [1] is greater than 100 mg/L; in assay [2] (setting [5]) it was 1 to 10 mg/L (≈ 2.98 to 29.8 µM); in assay [2] (setting [6]) it was 1 to 10 mg/L (≈ 2.98 to 29.8 µM); in assay [3], 10 to 100 mg/L (≈ 29.8 to 298 µM); in assay [4] it was 1 to 10 mg/L (≈ 2.98 to 29.8 µM).
For the compound `N#Cc1c(F)cc(-c2cc3c(cc2F)c2ocnc2c(=O)n3C2CC2)cc1F` [Compound 65, 4-(5-cyclopropyl-8-fluoro-4-oxo-oxazolo[4,5-c]quinolin-7-yl)-2,6-difluoro-benzonitrile], the MIC is greater than 100 mg/L in assay [1]; 1 to 10 mg/L (≈ 2.62 to 26.2 µM) in assay [2] (setting [5]); 1 to 10 mg/L (≈ 2.62 to 26.2 µM) in assay [2] (setting [6]); greater than 100 mg/L in assay [3]; 10 to 100 mg/L (≈ 26.2 to 262 µM) in assay [4].
For the compound `Cc1nc2c(=O)n(C3CC3)c3c(Cl)c(N4CCC(CN)C4)c(F)cc3c2o1` (stereo not drawn) [Compound 110, 7-[3-(aminomethyl)pyrrolidin-1-yl]-6-chloro-5-cyclopropyl-8-fluoro-2-methyl-oxazolo[4,5-c]quinolin-4-one], the MIC in assay [2] (setting [5]) and in assay [3] was less than 1 mg/L throughout.
